Literature values, collected in patent US7338780B2, “Method for producing tripeptides and/or peptides longer than tripeptides” (Ajinomoto Co., Inc., priority 2002, dated 2008).
Residues, ends and D or L forms follow the SMILES beside them.

water-solubility compared with L-glutamine: higher
Structure (SMILES): C[C@H](N)C(=O)N[C@@H](CCC(N)=O)C(=O)O [L-alanyl-L-glutamine] (H-Ala-Gln-OH)
